Assay results taken from PMC5053573, “Structure-Based Design of Tetrahydroisoquinoline-7-carboxamides as Selective Discoidin Domain Receptor 1 (DDR1) Inhibitors” (Journal of Medicinal Chemistry, 2016).

Assays:
Experiment in all cases: biochemical
Conditions in all cases: read-out: %Ctrl @ 1000nM
BLK = BLK (Homo sapiens, UniProt P51451)
KIT(A829P) = KIT(A829P) (Homo sapiens, UniProt P10721, A829P)
INSR = INSR (Homo sapiens, UniProt P06213)
HIPK3 = HIPK3 (Homo sapiens, UniProt Q9H422)
RIPK1 = RIPK1 (Homo sapiens, UniProt Q13546)
EPHA8 = EPHA8 (Homo sapiens, UniProt P29322)
EGFR = EGFR (Homo sapiens, UniProt P00533)
ERN1 = ERN1 (Homo sapiens, UniProt O75460)
EPHA2 = EPHA2 (Homo sapiens, UniProt P29317)
MEK3 = molecular target: T1, MEK3 (Homo sapiens, UniProt P46734)
T1 construct: gene MAP2K3

ITK = ITK (Homo sapiens, UniProt Q08881)
DYRK2 = DYRK2 (Homo sapiens, UniProt Q92630)
BMPR1B = BMPR1B (Homo sapiens, UniProt O00238)
PAK6 = PAK6 (Homo sapiens, UniProt Q9NQU5)
ALK = ALK (Homo sapiens, UniProt Q9UM73)
STK35 = STK35 (Homo sapiens, UniProt Q8TDR2)
PIK3CA(E545A) = PIK3CA(E545A) (Homo sapiens, UniProt P42336, E545A)
ACVR2B = ACVR2B (Homo sapiens, UniProt Q13705)
IRAK4 = IRAK4 (Homo sapiens, UniProt Q9NWZ3)
PIM3 = PIM3 (Homo sapiens, UniProt Q86V86)
SGK = molecular target: T2, SGK (Homo sapiens, UniProt O00141)
T2 construct: gene SGK1

CLK2 = CLK2 (Homo sapiens, UniProt P49760)
ROS1 = ROS1 (Homo sapiens, UniProt P08922)
MLK3 = molecular target: T3, MLK3 (Homo sapiens, UniProt Q16584)
T3 construct: gene MAP3K11

ERBB4 = ERBB4 (Homo sapiens, UniProt Q15303)
MST2 = molecular target: T4, MST2 (Homo sapiens, UniProt Q13188)
T4 construct: gene STK3

TLK2 = TLK2 (Homo sapiens, UniProt Q86UE8)
LYN = LYN (Homo sapiens, UniProt P07948)
MARK3 = MARK3 (Homo sapiens, UniProt P27448)
GCN2(Kin.Dom.2,S808G) = molecular target: T5, GCN2(Kin.Dom.2,S808G) (Homo sapiens, UniProt Q9P2K8, S808G)
T5 construct: gene EIF2AK4

AURKA = AURKA (Homo sapiens, UniProt O14965)
PRKR = molecular target: T6, PRKR (Homo sapiens, UniProt P19525)
T6 construct: gene EIF2AK2

CAMK4 = CAMK4 (Homo sapiens, UniProt Q16566)
MRCKA = molecular target: T7, MRCKA (Homo sapiens, UniProt Q5VT25)
T7 construct: gene CDC42BPA

SBK1 = SBK1 (Homo sapiens, UniProt Q52WX2)
NEK4 = NEK4 (Homo sapiens, UniProt P51957)
NEK4, sequence (P51957 whole entry): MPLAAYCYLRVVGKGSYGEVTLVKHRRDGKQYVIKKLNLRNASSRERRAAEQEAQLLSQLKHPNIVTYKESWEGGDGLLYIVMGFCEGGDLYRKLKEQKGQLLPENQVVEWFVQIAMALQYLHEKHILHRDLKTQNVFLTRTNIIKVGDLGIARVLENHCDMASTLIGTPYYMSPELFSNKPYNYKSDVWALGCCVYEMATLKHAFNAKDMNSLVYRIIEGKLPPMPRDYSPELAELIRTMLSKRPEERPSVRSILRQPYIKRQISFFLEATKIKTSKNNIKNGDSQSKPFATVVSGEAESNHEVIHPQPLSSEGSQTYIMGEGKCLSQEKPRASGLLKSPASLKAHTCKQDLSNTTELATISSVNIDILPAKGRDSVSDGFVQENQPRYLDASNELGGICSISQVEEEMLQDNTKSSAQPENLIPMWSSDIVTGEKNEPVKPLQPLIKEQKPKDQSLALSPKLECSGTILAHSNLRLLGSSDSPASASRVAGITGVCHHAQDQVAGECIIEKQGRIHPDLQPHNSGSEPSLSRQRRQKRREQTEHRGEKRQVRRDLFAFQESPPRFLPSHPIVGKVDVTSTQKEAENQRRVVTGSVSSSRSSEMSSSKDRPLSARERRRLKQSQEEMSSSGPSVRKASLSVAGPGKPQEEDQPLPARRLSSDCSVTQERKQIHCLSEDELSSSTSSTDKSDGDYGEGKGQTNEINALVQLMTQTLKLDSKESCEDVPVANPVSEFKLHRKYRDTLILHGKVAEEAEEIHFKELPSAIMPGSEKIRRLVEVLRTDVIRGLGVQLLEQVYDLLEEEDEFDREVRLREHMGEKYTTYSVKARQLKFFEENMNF

DYRK2, sequence (Q92630 whole entry): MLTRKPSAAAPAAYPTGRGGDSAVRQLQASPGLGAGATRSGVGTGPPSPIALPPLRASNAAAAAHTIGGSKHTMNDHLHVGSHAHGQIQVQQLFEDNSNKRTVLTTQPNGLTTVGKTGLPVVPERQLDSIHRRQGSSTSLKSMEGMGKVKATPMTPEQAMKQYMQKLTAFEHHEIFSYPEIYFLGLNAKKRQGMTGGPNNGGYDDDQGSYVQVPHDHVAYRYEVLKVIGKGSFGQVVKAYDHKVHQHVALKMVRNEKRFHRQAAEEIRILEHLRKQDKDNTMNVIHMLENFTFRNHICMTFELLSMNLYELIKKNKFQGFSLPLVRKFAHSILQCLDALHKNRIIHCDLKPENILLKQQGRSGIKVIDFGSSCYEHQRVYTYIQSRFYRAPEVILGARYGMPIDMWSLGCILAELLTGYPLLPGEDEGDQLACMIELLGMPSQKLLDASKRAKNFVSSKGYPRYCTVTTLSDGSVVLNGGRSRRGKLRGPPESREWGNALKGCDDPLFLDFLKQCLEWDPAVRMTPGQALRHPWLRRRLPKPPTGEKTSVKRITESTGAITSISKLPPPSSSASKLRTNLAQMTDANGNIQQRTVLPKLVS
BLK, sequence (P51451 whole entry): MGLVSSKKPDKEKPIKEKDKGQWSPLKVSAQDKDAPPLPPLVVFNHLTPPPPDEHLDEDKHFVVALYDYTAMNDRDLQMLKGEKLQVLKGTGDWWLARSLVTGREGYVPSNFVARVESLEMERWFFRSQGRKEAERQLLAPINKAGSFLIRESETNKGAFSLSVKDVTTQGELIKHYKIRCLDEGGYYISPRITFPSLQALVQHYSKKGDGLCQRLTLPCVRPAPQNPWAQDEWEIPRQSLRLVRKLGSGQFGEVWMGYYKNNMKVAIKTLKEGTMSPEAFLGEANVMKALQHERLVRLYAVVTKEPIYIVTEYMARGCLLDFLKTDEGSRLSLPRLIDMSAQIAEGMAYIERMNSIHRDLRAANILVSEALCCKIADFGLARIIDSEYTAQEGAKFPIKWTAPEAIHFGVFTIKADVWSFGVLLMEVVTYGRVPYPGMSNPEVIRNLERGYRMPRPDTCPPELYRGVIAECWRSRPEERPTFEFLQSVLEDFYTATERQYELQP
HIPK3, sequence (Q9H422 whole entry): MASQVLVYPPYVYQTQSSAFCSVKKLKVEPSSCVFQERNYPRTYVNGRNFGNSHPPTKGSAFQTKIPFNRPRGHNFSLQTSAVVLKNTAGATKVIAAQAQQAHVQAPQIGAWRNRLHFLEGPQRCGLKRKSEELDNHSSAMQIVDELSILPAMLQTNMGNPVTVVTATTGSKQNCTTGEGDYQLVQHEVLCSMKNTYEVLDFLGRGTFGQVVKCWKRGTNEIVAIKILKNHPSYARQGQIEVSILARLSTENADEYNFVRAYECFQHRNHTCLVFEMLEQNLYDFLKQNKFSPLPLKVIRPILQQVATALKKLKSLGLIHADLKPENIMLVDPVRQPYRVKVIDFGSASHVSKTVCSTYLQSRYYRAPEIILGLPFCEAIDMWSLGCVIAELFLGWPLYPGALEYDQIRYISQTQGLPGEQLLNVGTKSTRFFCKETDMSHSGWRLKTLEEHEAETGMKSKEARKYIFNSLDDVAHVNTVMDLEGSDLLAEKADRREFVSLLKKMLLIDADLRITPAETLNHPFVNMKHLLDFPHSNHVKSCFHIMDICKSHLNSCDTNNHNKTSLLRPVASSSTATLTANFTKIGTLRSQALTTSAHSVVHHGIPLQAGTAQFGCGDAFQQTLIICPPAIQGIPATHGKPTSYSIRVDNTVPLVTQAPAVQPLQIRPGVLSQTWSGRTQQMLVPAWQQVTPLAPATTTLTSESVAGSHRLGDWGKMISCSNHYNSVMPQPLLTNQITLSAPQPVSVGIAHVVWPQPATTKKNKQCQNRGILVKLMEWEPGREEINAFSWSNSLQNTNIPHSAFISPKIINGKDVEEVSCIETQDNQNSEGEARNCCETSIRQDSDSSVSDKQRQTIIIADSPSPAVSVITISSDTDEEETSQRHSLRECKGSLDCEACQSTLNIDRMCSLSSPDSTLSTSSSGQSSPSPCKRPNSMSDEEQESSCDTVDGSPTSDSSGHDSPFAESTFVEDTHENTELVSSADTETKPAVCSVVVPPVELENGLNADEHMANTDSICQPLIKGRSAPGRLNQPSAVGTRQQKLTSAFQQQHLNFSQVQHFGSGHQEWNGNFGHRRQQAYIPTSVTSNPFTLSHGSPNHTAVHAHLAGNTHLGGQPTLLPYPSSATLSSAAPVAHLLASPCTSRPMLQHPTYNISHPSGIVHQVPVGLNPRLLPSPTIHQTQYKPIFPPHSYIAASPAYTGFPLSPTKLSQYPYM
T4 sequence (Q13188 whole entry): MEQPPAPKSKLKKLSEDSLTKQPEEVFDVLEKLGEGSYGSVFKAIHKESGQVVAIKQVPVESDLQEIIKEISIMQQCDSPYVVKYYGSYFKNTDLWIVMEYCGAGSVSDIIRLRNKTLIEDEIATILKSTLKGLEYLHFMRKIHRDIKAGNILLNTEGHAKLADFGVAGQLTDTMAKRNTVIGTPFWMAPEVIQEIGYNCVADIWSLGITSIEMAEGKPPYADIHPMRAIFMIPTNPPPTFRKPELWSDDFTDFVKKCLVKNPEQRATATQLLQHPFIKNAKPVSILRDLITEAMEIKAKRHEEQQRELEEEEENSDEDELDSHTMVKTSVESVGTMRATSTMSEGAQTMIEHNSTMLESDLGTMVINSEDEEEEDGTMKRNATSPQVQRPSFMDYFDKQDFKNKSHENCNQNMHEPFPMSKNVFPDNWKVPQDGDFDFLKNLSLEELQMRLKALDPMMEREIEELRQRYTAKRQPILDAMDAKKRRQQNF
EPHA8, sequence (P29322 whole entry): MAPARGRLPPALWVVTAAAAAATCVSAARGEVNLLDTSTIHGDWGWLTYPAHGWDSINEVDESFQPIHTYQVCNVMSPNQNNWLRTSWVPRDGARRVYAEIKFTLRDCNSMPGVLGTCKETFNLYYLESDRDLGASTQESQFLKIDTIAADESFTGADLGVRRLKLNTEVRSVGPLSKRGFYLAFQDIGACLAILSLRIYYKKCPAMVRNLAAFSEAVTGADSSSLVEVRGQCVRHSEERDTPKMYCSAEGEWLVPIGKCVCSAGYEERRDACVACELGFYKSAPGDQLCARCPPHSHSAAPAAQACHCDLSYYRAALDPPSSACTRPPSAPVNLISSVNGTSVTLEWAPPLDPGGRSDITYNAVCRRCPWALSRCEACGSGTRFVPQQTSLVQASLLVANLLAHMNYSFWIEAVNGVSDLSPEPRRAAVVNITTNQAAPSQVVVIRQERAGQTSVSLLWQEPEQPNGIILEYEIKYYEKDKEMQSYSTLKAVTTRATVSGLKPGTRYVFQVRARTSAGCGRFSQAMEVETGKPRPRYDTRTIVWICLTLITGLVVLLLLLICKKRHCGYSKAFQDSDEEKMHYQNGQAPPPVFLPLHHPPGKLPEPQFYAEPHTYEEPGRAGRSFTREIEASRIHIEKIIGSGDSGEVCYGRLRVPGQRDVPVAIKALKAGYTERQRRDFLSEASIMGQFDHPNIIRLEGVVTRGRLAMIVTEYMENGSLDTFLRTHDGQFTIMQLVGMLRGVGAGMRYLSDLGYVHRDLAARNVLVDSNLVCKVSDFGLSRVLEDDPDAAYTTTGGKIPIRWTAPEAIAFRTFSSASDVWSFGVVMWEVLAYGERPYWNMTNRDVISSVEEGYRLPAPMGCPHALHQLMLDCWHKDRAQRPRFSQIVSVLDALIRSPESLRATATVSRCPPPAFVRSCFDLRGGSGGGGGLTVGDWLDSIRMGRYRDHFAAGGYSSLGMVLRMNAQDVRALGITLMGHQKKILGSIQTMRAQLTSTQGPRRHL
AURKA, sequence (O14965 whole entry): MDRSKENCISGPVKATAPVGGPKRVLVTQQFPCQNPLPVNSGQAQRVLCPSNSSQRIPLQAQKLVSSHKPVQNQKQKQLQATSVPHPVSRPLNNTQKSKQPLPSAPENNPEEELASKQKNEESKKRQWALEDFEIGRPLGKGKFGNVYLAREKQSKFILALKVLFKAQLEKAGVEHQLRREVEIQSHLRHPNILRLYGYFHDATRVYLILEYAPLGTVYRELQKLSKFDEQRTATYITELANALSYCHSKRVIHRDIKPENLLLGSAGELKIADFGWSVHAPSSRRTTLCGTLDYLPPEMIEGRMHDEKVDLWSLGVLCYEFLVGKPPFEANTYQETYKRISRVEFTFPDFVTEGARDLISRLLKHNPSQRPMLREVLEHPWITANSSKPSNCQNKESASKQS

remaining activity at 1 µM (BLK): 68%
remaining activity at 1 µM (KIT(A829P)): 100%
remaining activity at 1 µM (INSR): 100%
remaining activity at 1 µM (HIPK3): 86%
remaining activity at 1 µM (RIPK1): 98%
remaining activity at 1 µM (EPHA8): 21%
remaining activity at 1 µM (EGFR): 94%
remaining activity at 1 µM (ERN1): 100%
remaining activity at 1 µM (EPHA2): 65%
remaining activity at 1 µM (MEK3): 100%
remaining activity at 1 µM (ITK): 97%
remaining activity at 1 µM (DYRK2): 100%
remaining activity at 1 µM (BMPR1B): 100%
remaining activity at 1 µM (PAK6): 85%
remaining activity at 1 µM (ALK): 95%
remaining activity at 1 µM (STK35): 100%
remaining activity at 1 µM (PIK3CA(E545A)): 86%
remaining activity at 1 µM (ACVR2B): 93%
remaining activity at 1 µM (IRAK4): 100%
remaining activity at 1 µM (PIM3): 94%
remaining activity at 1 µM (SGK): 100%
remaining activity at 1 µM (CLK2): 86%
remaining activity at 1 µM (ROS1): 86%
remaining activity at 1 µM (MLK3): 81%
remaining activity at 1 µM (ERBB4): 100%
remaining activity at 1 µM (MST2): 100%
remaining activity at 1 µM (TLK2): 98%
remaining activity at 1 µM (LYN): 100%
remaining activity at 1 µM (MARK3): 94%
remaining activity at 1 µM (GCN2(Kin.Dom.2,S808G)): 100%
remaining activity at 1 µM (AURKA): 96%
remaining activity at 1 µM (PRKR): 100%
remaining activity at 1 µM (CAMK4): 86%
remaining activity at 1 µM (MRCKA): 93%
remaining activity at 1 µM (SBK1): 100%
remaining activity at 1 µM (NEK4): 98%
SMILES: Cc1cn(-c2cc(NC(=O)c3ccc4c(c3)CN(c3cncnc3)C[C@@H]4C)cc(C(F)(F)F)c2)cn1 [Compound 6j]
